The supplement of paper PMC10331698
± gives the standard deviation of the averaged measurements.

Columns and labels:
Experiment in all cases: level (log10 ratio to DMSO vehicle control); higher = higher biomarker level / cell amount than vehicle control
Details in all cases: in DMSO
[1] = compound: C=C(C)C(=O)OCCC(F)(F)C(F)(F)C(F)(F)C(F)(F)C(F)(C(F)(F)F)C(F)(F)F [(Perfluoro-5-methylhexyl)ethyl 2-methylprop-2-enoate]
Method: (§1)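 BioMAP Diversity Plus panel of 12 human primary cell co-culture systems (3C, 4H, LPS, SAg, BT, BF4T, BE3C, CASM3C, HDF3CGF, KF3CT, MyoF, Mphg). Compounds were added 1 h before stimulation and left for 24 h (MyoF 48 h; BT 72 h for soluble read-outs or 6 d for IgG). Biomarkers were read by ELISA, cytotoxicity by SRB, PBMC viability and proliferation by Alamar Blue. Each well value was divided by the mean of 8 DMSO control wells on the same plate and log10 transformed; duplicate blinded samples were tested at 4 concentrations.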

[2] = compound: C=CC(F)(F)C(F)(F)C(F)(F)C(F)(F)C(F)(F)C(F)(F)C(F)(F)C(F)(F)C=C [1,8-Divinylperfluorooctane]
Method: as §1

[3] = compound: FC(F)C(F)(F)COCC1CO1 [((2,2,3,3-Tetrafluoropropoxy)methyl)oxirane]
Method: as §1

Heptafluorobutyramide = compound: NC(=O)C(F)(F)C(F)(F)C(F)(F)F [Heptafluorobutyramide]
Method: as §1

Pentafluoropropionamide = compound: NC(=O)C(F)(F)C(F)(F)F [Pentafluoropropionamide]
Method: as §1

[4] = compound: NCC(F)(F)C(F)(F)C(F)(F)C(F)(F)C(F)(F)C(F)(F)C(F)(F)F [1H,1H-Perfluorooctylamine]
Method: as §1

[5] = compound: O=C(O)C(F)(F)OC(F)(F)C(F)(F)OC(F)(F)F [Perfluoro-3,6-dioxaheptanoic acid]
Method: as §1

Test System	level (log10) ([1]; 6700 nM)	level (log10) ([1]; 20000 nM)	level (log10) ([2]; 6700 nM)	level (log10) ([2]; 20000 nM)	level (log10) ([3]; 6700 nM)	level (log10) ([3]; 20000 nM)	level (log10) ([3]; 60000 nM)	level (log10) (Heptafluorobutyramide; 6700 nM)	level (log10) (Heptafluorobutyramide; 20000 nM)	level (log10) (Heptafluorobutyramide; 60000 nM)	level (log10) (Pentafluoropropionamide; 6700 nM)	level (log10) (Pentafluoropropionamide; 20000 nM)	level (log10) (Pentafluoropropionamide; 60000 nM)	level (log10) ([4]; 6700 nM)	level (log10) ([4]; 20000 nM)	level (log10) ([4]; 60000 nM)	level (log10) ([5]; 6700 nM)	level (log10) ([5]; 20000 nM)	level (log10) ([5]; 60000 nM)
HDF3CGF:M-CSF	-0.0175 ± 0.0078	-0.0175 ± 0.0035	-0.0335 ± 0.042	-0.0085 ± 0.053	0.009	-0.001 ± 0.033	-0.001 ± 0.013	-0.0145 ± 0.00071	-0.009	0.0165 ± 0.035	0.0015 ± 0.011	-0.0135 ± 0.0035	0.0085 ± 0.06	-0.0255 ± 0.0064	-0.031 ± 0.061	-0.027 ± 0.069	-0.015 ± 0.0099	-0.013 ± 0.0042	-0.0105 ± 0.05
KF3CT:CXCL9/MIG	0.018 ± 0.014	0.0215 ± 0.023	-0.002 ± 0.0042	-0.0015 ± 0.011	0.007 ± 0.0085	-0.002 ± 0.0099	0.0055 ± 0.0078	0.0065 ± 0.0021	0.0005 ± 0.0078	0.0155 ± 0.0064	0.0055 ± 0.013	-0.0015 ± 0.0035	-0.0085 ± 0.012	0 ± 0.0057	0.0005 ± 0.018	-0.005 ± 0.0099	-0.022 ± 0.0071	0.0065 ± 0.013	-0.0035 ± 0.019
3C:CD141/Thrombomodulin	0.041 ± 0.033	0.005 ± 0.033	-0.0215 ± 0.022	-0.0055 ± 0.023	-0.007 ± 0.0085	-0.0185 ± 0.049	-0.0145 ± 0.039	-0.004 ± 0.083	-0.022 ± 0.099	-0.047 ± 0.11	-0.0355 ± 0.032	-0.0165 ± 0.005	-0.027 ± 0.018	-0.036 ± 0.033	-0.0295 ± 0.033	-0.0385 ± 0.039	-0.037 ± 0.04	-0.0105 ± 0.044	-0.0255 ± 0.077
lMphg:CCL3/MIP-1alpha	-0.008 ± 0.034	-0.0125 ± 0.044	-0.019 ± 0.0071	0.0065 ± 0.046	-0.027 ± 0.059	-0.0385 ± 0.084	-0.0025 ± 0.026	-0.0235 ± 0.039	-0.035 ± 0.024	-0.0015 ± 0.00071	-0.011 ± 0.011	-0.0175 ± 0.0064	0.017 ± 0.045	0 ± 0.0099	-0.0215 ± 0.016	0.0035 ± 0.044	-0.0185 ± 0.026	-0.0065 ± 0.012	-0.0065 ± 0.019
